Values after ≈ are worked out from the molar mass of the structure shown.
What was measured:
Type in all cases: cell-based
E. faecium NCIM 5421 = experiment: MIC by micro broth dilution; settings: Enterococcus faecium, NCIM5421, read-out: Minimum inhibitory concentration (MIC)
Procedure, shortened: (§1)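 Alamar blue read-out defined the MIC after 24 h incubation at 37° C. Strains grown on BHI agar; inoculum set to 0.5 McFarland, then diluted 100 times in BHI broth and added to doubling drug dilutions.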

S. aureus ATCC 43300 = experiment: MIC by micro broth dilution; settings: Staphylococcus aureus, ATCC43300; S. aureus ATCC 43300; read-out: Minimum inhibitory concentration (MIC)
Procedure, shortened: as §1

A. baumannii ATCC 1906 = experiment: MIC by micro broth dilution; settings: Acinetobacter baumannii, ATCC1906, read-out: Minimum inhibitory concentration (MIC)
Procedure, shortened: as §1

E. aerogenes NCIM 5139 = experiment: MIC by micro broth dilution; settings: Klebsiella aerogenes, NCIM5139, read-out: Minimum inhibitory concentration (MIC)
Procedure, shortened: as §1

K. pneumonia ATCC 13883 = experiment: MIC by micro broth dilution; settings: Klebsiella pneumoniae, ATCC13883; K. pneumonia ATCC 13883; read-out: Minimum inhibitory concentration (MIC)
Procedure, shortened: as §1

E. aerogenes M2-1 = experiment: MIC by micro broth dilution; settings: Klebsiella aerogenes, M21, read-out: Minimum inhibitory concentration (MIC)
Procedure, shortened: as §1

[1] = tested on: S. epidermidis ATCC 35984; experiment: MIC by micro broth dilution; settings: Staphylococcus epidermidis, ATCC35984, read-out: Minimum inhibitory concentration (MIC)
Procedure, shortened: as §1

P. aeruginosa ATCC 27853 = experiment: MIC by micro broth dilution; settings: Pseudomonas aeruginosa, ATCC27853, read-out: Minimum inhibitory concentration (MIC)
Procedure, shortened: as §1

Gram negative pathogens = experiment: MIC interpretations, Gram negative pathogens; settings: most of the Gram negative pathogens
Protocol: MIC of DART molecules were determined by micro broth dilution as per CLSI guidelines. Bacterial strains were cultured in Brain Heart Infusion Agar (BHIA) at 37° C. for 24 h. For MIC determination, BHI broth (100 μl) was added to each of the wells of a 96 well plate. 100 μl of broth containing drug was added to the first well (1A to 1H) and thereafter serial (double) dilutions were carried out for up to 10 wells (column 1 to column 10 of the 96 well plate). Bacterial inoculum was prepared by adjusting the bacterial culture turbidity to 0.5 McFarland standard (approximately 1.5×10^8 cells/ml) and further diluted (100 times with sterile BHI broth). Diluted bacterial suspension (100 μl) was added to each well except sterility control wells (column 12 of 96 well plate). The plates were incubated at 37° C. for 24 h. The MIC of the test compound was measured after addition of Alamar blue dye.

Cc1ncc([N+](=O)[O-])n1CCN1CCN(c2cc3c(cc2F)c(=O)c(C(=O)O)c2n3C(C)S2)CC1 (stereo not drawn) [Compound 2, 6-Fluoro-1-methyl-7-(4-(2-(2-methyl-5-nitro-1H-imidazol-1-yl)ethyl)piperazin-1-yl)-4-oxo-1H,4H-[1,3]thiazeto[3,2-a]quinoline-3-carboxylic acid]
MIC (E. faecium NCIM 5421): 0.25 µg/mL (≈ 0.497 µM) | MIC (S. aureus ATCC 43300): 0.13 µg/mL (≈ 0.259 µM) | MIC (A. baumannii ATCC 1906): 8 µg/mL (≈ 15.9 µM) | MIC (E. aerogenes NCIM 5139): 4 µg/mL (≈ 7.96 µM) | MIC (K. pneumonia ATCC 13883): 4 µg/mL (≈ 7.96 µM) | MIC (E. aerogenes M2-1): 8 µg/mL (≈ 15.9 µM) | MIC [1]: 0.03 µg/mL (≈ 0.0597 µM) | MIC (P. aeruginosa ATCC 27853): 8 µg/mL (≈ 15.9 µM) | activity (MIC) range (Gram negative pathogens): 4 to 8 µg/mL

— patent US10570152B2, “Antibacterial therapeutics and prophylactics” (VYOME BIOSCIENCES PVT. LTD., priority 2015, dated 2020)
